# According to patent US4652566A, “Benzofuran derivatives, processes for preparing the same and antihypertensive agents containing the same” (Kaken Pharmaceutical Co., Ltd., priority 1984, dated 1987):
# Counter-ions that a name gives are not always drawn. Like-named read-outs stand apart in the source and are kept apart here.
# What was measured:
# [1] = Antihypertensive effect and effect on heart rate in spontaneously hypertensive rat (SHR); assay type: in vivo; conditions: po, single dose
# Description: [Antihypertensive effect and effect on a heart rate on rat suffering from a spontaneously hypertensive rat (SHR)]
# A blood pressure was measured under no anesthetic condition by means of an apparatus for recording a blood pressure of a tail artery and a heart rate (Riken Kaihatsu Co., Ltd.) (PS-802) and at the same time a heart rate was also measured.
# Each of test compounds was dissolved or suspended in an aqueous solution containing 5% by weight of acasia and the obtained solution or suspension was administered once orally to SHR which had been kept under a fast condition for one night. A blood pressure and a heart rate were measured before administration and after one hour, three hours, five hours and seven hours of it and the maximum value of changes were calculated by comparing the value measured before administration with the value measured after administration.
# For the purpose of a comparison, the same experiment as mentioned above was carried out on both Labetalol and Diltiazem as mentioned above.
# With respect to a dosage, 100 mg/kg and 10 mg/kg as to compounds obtained by Examples 2, 5, 6, 9 and 18 to 23 were respectively administered, 100 mg/kg as to compounds obtained by Examples 1, 3, 4, 7 and 10 to 17 was respectively administered.
# [2] = target: T1, calcium antagonism (thoracic aorta spiral specimen, contraction by calcium) (Cavia porcellus, UniProt O35505); test: Calcium antagonistic effect (contraction response by calcium of spiral thoracic aorta specimen, Magnus method); design: species or system Hartly male giunea pig; conditions: guinea pig thoracic aorta, antagonism of calcium contraction; for Kb: read-out: Calcium antagonistic effect, pA2 value (converted)
# T1 construct: from tissue; host or cells: thoracic aorta spiral strip of male Hartley guinea pig
# T1 sequence (O35505 whole entry): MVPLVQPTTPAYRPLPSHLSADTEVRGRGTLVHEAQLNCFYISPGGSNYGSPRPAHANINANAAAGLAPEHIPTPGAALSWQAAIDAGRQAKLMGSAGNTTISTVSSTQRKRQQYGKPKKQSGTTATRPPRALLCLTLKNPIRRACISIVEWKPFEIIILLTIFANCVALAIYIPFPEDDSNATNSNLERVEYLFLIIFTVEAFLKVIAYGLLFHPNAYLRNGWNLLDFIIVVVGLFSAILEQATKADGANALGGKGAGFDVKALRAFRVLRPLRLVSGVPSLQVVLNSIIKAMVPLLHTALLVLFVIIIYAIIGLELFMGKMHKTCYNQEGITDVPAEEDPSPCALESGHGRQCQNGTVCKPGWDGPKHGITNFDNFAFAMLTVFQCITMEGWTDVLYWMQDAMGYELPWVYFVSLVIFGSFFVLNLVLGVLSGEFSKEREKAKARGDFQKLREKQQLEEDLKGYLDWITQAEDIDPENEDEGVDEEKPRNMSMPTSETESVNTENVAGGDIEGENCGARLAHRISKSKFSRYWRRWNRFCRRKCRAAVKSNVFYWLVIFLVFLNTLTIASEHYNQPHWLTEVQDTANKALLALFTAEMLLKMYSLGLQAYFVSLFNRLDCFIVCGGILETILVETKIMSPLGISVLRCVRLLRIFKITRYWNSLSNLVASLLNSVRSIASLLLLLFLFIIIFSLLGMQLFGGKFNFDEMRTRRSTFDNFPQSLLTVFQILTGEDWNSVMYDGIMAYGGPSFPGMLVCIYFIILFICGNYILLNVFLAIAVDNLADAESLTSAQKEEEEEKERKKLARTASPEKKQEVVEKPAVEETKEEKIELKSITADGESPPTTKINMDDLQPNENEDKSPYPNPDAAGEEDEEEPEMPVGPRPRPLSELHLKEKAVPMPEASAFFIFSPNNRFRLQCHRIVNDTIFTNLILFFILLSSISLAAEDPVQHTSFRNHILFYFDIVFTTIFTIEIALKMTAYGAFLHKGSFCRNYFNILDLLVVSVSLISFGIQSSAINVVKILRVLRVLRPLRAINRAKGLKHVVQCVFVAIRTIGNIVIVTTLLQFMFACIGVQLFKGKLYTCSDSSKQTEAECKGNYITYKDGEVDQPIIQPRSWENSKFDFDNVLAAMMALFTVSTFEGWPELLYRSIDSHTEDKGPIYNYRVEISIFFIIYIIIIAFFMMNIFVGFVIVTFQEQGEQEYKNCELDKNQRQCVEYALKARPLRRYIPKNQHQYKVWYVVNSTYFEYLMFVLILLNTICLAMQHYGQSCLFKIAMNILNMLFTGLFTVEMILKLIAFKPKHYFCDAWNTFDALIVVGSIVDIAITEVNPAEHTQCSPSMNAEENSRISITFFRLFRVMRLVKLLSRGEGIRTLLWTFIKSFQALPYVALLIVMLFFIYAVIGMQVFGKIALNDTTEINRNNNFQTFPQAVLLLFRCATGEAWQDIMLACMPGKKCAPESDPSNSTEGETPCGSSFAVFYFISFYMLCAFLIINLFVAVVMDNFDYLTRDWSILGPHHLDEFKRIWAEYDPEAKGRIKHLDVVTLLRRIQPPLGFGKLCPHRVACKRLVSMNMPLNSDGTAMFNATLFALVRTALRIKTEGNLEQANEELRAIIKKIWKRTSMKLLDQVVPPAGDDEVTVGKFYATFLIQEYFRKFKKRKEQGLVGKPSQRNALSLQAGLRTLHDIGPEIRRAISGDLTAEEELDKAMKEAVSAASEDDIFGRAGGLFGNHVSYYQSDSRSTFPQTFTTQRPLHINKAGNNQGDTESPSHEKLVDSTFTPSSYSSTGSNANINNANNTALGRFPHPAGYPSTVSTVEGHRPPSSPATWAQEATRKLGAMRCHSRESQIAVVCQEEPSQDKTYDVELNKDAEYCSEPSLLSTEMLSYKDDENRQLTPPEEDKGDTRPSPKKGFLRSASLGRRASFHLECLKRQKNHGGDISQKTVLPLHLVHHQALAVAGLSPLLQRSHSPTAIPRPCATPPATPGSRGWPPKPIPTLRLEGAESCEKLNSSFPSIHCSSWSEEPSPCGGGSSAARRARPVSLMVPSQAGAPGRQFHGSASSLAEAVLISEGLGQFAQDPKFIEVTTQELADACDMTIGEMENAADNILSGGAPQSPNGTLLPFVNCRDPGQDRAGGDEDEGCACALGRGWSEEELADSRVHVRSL
# Description: [Calcium antagonistic effect]
# Using a spiral blood vessel specimen taken from a thoracic aorta of Hartly male giunea pig weighed 400 to 600 g, a contraction response by calcium was measured as a dose-response curve according to Magnus method and the antagonistic activity for each test compound was indicated as above-mentioned pA2 value.
# [3] = target: T2, α-adrenergic blockade (vas deferens specimen, contraction by noradrenalin) (Rattus norvegicus, UniProt P43140); test: α-Adrenergic blockade effect (contraction response by noradrenalin of vas deferens specimen, Magnus method); design: species or system Wister male rat
# T2 construct: from tissue; host or cells: vas deferens of six-week-old male Wistar rat
# T2 sequence (P43140 1-466): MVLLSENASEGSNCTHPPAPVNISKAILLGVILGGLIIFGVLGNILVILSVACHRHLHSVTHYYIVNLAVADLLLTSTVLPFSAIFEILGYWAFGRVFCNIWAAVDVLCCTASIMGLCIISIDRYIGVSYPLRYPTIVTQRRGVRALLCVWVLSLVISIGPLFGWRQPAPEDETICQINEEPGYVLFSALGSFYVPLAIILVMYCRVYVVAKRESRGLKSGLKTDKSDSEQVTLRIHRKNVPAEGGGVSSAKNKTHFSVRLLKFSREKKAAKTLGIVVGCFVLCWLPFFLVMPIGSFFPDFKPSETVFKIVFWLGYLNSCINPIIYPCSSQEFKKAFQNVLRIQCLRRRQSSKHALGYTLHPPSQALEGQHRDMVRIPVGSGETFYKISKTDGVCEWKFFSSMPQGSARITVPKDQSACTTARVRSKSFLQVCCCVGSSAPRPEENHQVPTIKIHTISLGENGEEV
# [4] = Accute toxicity test (LD50 value); conditions: mouse, in vivo; mice; single oral administration; deaths by seventh day; Litchfield-Wilcoxon
# Description: [Accute toxicity test (LD50 value)]
# The experiment was carried out using six weeks old ddy male mice.
# Each of test compounds was suspended in an aqueous solution containing 5% by weight of acasia and the suspension was administered compulsorily once orally with a gastric probe. Within six hours after the start of the administration, the behavior of tested mice were observed consecutively. Thereafter, the observation was made at an interval of twenty four hours during 7 days and an accumulative number of deaths seventh day since the start of the administration was measured.
# LD50 value was calculated according to the Litchfield-Wilcoxon method.
# [5] = 100 mg/kg, maximum over 1, 3, 5, 7 hours (Table 3)
# [6] = rat vas deferens, antagonism of noradrenalin contraction, pA2 = negative logarithm of antagonist dose shifting agonist curve two times, read-out: α-Adrenergic blockade effect, pA2 value (converted)
# [7] = 10 mg/kg, maximum over 1, 3, 5, 7 hours (Table 2)
# [8] = 100 mg/kg, maximum over 1, 3, 5, 7 hours (Table 2)
# [9] = rat vas deferens, antagonism of noradrenalin contraction, pA2 = negative logarithm of antagonist dose shifting agonist curve two times
Kb [3] [µM],Compound,"Maximum value of change, heart rate [1, 5] [beats/min]","Maximum value of change, systolic pressure [1, 5] [mmHg]",Kb [2] [µM],"Kb [3, 6] [µM]",LD50 at 168 h [4] [mg/kg],"Maximum value of change, heart rate [1, 7] [beats/min]","Maximum value of change, systolic pressure [1, 7] [mmHg]","Maximum value of change, heart rate [1, 8] [beats/min]","Maximum value of change, systolic pressure [1, 8] [mmHg]","Calcium antagonistic effect, pA2 value [2]","α-Adrenergic blockade effect, pA2 value [3, 9]"
–,"COc1ccccc1N1CCN(CC(O)COc2ccc3cc(C(N)=O)oc3c2)CC1 (centres unmarked) [Ex. 11, 2-carbamoyl-6-{2-hydroxy-3-[4-(2-methoxyphenyl)piperazinyl]propoxy}benzofuran]",-126.5 ± 27.3,-78.8 ± 7.6,0.158,0.0575,> 1500,–,–,–,–,–,–
–,"COc1ccc([C@@H]2Sc3ccccc3N(CCN(C)C)C(=O)[C@@H]2OC(C)=O)cc1 [Diltiazem, reference compound]",-136.7 ± 34.2,-79.9 ± 11.6,–,–,–,-140.0 ± 27.5,-12.8 ± 5.7,-136.7 ± 34.2,-79.9 ± 11.6,–,–
–,NC(=O)c1cc2cccc(OCC(O)CN3CCN(c4cccc(Cl)c4)CC3)c2o1 (centres unmarked) [Ex. 15],-100.0 ± 19.5,-79.9 ± 11.9,0.398,3.02,> 1000,–,–,–,–,–,–
–,"Cc1ccccc1N1CCN(CC(O)COc2cccc3cc(C(C)O)oc23)CC1 (centres unmarked) [Ex. 23, 2-(1-hydroxyethyl)-7-{2-hydroxy-3-[4-(2-methylphenyl)piperazinyl]propoxy}benzofuran]",–,–,0.589,0.0776,> 1000,-93.4 ± 17.6,-54.9 ± 9.4,-131.4 ± 22.3,-73.1 ± 9.2,–,–
–,"Cc1ccccc1N1CCN(CC(O)COc2cccc3cc(C(N)=O)oc23)CC1 (centres unmarked) [Ex. 13, 2-carbamoyl-7-{2-hydroxy-3-[4-(2-methylphenyl)piperazinyl]propoxy}benzofuran]",-80.0 ± 16.6,-97.0 ± 9.8,1.35,0.24,> 1500,–,–,–,–,–,–
–,"COc1ccccc1N1CCN(CC(O)COc2cccc3cc(C(=O)O)oc23)CC1 (centres unmarked) [Ex. 21, 2-carboxy-7-{2-hydroxy-3-[4-(2-methoxyphenyl)piperazinyl]propoxy}benzofuran]",–,–,–,–,–,-5.8 ± 8.7,-46.9 ± 6.3,-25.7 ± 16.4,-73.8 ± 9.9,–,–
–,"CC(=O)c1cc2cccc(OCC(O)CN3CCN(c4ccccc4C)CC3)c2o1 (centres unmarked) [Ex. 6, 2-acetyl-7-{2-hydroxy-3-[4-(2-methylphenyl)-piperazinyl]propoxy}benzofuran]",–,–,–,–,–,-70.0 ± 20.3,-71.7 ± 4.9,-135.8 ± 17.0,-90.3 ± 9.2,–,–
–,"CCOC(=O)c1cc2cccc(OCC(O)CN3CCN(c4ccccc4OC)CC3)c2o1 (centres unmarked) [Ex. 18 (HCl salt), 2-ethoxycarbonyl-7-{2-hydroxy-3-[4-(2-methoxyphenyl)-piperazinyl]propoxy}benzofuran]",–,–,0.209,0.0741,> 1000,–,–,–,–,–,–
–,"CCOC(=O)c1cc2cc(OCC(O)CN3CCN(c4ccccc4OC)CC3)ccc2o1 (centres unmarked) [Ex. 19, 2-ethoxycarbonyl-5-{2-hydroxy-3-[4-(2-methoxyphenyl)piperrazinyl]propoxy}benzofuran]",–,–,–,–,–,-68.4 ± 45.1,-37.6 ± 9.0,-73.4 ± 19.6,-60.1 ± 10.8,–,–
–,"CC(=O)c1cc2cccc(OCC(O)CN3CCN(c4ccccc4C)CC3)c2o1 (centres unmarked) [Ex. 6 (HCl salt), 2-acetyl-7-{2-hydroxy-3-[4-(2-methylphenyl)-piperazinyl]propoxy}benzofuran]",–,–,0.468,0.0447,> 1500,–,–,–,–,–,–
–,"COc1ccccc1N1CCN(CC(O)COc2cccc3cc(C(C)=O)oc23)CC1 (centres unmarked) [Ex. 2, 2-acetyl-7-{2-hydroxy-3-[4-(2-methoxyphenyl)piperazinyl]-propoxy}benzofuran]",–,–,–,–,> 1500,-121.7 ± 15,-54.8 ± 11.2,-155.6 ± 15.5,-72.4 ± 8.9,–,–
–,COc1ccccc1N1CCN(CC(O)COc2ccc3oc(C(C)=O)cc3c2)CC1 (centres unmarked) [Ex. 5],–,–,–,–,–,-49.2 ± 28.0,-56.3 ± 6.0,-143.4 ± 34.2,-101.3 ± 5.2,–,–
–,CC(=O)c1cc2cc(OCC(O)CN3CCN(c4ccccc4C)CC3)ccc2o1 (centres unmarked) [Ex. 7],–,–,–,–,–,-45.0 ± 17.2,-86.4 ± 8.6,-51.3 ± 20.2,-117.5 ± 12.6,–,–
–,"CCOC(=O)c1cc2cccc(OCC(O)CN3CCN(c4ccccc4OC)CC3)c2o1 (centres unmarked) [Ex. 18, 2-ethoxycarbonyl-7-{2-hydroxy-3-[4-(2-methoxyphenyl)-piperazinyl]propoxy}benzofuran]",–,–,–,–,–,-96.7 ± 35.1,-35.8 ± 4.6,-138.3 ± 25.4,-65.1 ± 5.5,–,–
–,"COc1ccccc1N1CCN(CC(O)COc2cccc3cc(C(=O)O)oc23)CC1 (centres unmarked) [Ex. 21 (HCl salt), 2-carboxy-7-{2-hydroxy-3-[4-(2-methoxyphenyl)piperazinyl]propoxy}benzofuran]",–,–,3.31,0.355,> 1000,–,–,–,–,–,–
–,CC(=O)c1cc2cc(OCC(O)CN3CCN(c4ccccc4C)CC3)ccc2o1 (centres unmarked) [Ex. 7 (HCl salt)],–,–,0.631,0.219,> 2000,–,–,–,–,–,–
–,"CCOC(=O)c1cc2cc(OCC(O)CN3CCN(c4ccccc4C)CC3)ccc2o1 (centres unmarked) [Ex. 20 (HCl salt), 2-ethoxycarbonyl-5-{2-hydroxy-3-[4-(2-methylphenyl)-piperazinyl]propoxy}benzofuran]",–,–,–,–,> 1500,–,–,–,–,4.88 ± 0.70,6.46 ± 0.09
–,"CCOC(=O)c1cc2cc(OCC(O)CN3CCN(c4ccccc4OC)CC3)ccc2o1 (centres unmarked) [Ex. 19 (HCl salt), 2-ethoxycarbonyl-5-{2-hydroxy-3-[4-(2-methoxyphenyl)piperrazinyl]propoxy}benzofuran]",–,–,–,–,> 1500,–,–,–,–,5.28 ± 0.14,6.72 ± 0.03
–,"CCOC(=O)c1cc2cc(OCC(O)CN3CCN(c4ccccc4C)CC3)ccc2o1 (centres unmarked) [Ex. 20, 2-ethoxycarbonyl-5-{2-hydroxy-3-[4-(2-methylphenyl)-piperazinyl]propoxy}benzofuran]",–,–,–,–,–,-81.1 ± 22.2,-57.5 ± 12.5,-87.5 ± 17.7,-80.7 ± 13.6,–,–
1.51,"CC(CCc1ccccc1)NCC(O)c1ccc(O)c(C(N)=O)c1 (centres unmarked) [Labetalol, reference compound]",-125.2 ± 25.6,-55.0 ± 9.1,–,–,–,-122.5 ± 37.5,-32.9 ± 12.9,-125.2 ± 25.6,-55.0 ± 9.1,–,–
